Measurements as given in patent US20090018134A1, “Compounds - 945” (AstraZeneca AB, priority 2007, published 2009).

Molecular target: T1, mTOR (Homo sapiens, UniProt P42345)
T1 construct: FLAG; made in house
Assay: In Vitro mTOR Kinase Assay (Echo), Test (a)(ii)
Format: biochemical
Conditions: table of enzyme assay Test (a)(ii); read-out: Test (a)(ii) IC50
Outline: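 FLAG-tagged human mTOR truncation (residues 1362-2549) expressed in HEK293 cells and FLAG-purified. Compounds dispensed acoustically, reaction 2 h at room temperature, stopped with EDTA. Phosphorylation of biotinylated peptide detected by AlphaScreen with anti-p70 S6K (T389) antibody overnight; IC50 reported.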

T1 sequence (P42345 1362-2549): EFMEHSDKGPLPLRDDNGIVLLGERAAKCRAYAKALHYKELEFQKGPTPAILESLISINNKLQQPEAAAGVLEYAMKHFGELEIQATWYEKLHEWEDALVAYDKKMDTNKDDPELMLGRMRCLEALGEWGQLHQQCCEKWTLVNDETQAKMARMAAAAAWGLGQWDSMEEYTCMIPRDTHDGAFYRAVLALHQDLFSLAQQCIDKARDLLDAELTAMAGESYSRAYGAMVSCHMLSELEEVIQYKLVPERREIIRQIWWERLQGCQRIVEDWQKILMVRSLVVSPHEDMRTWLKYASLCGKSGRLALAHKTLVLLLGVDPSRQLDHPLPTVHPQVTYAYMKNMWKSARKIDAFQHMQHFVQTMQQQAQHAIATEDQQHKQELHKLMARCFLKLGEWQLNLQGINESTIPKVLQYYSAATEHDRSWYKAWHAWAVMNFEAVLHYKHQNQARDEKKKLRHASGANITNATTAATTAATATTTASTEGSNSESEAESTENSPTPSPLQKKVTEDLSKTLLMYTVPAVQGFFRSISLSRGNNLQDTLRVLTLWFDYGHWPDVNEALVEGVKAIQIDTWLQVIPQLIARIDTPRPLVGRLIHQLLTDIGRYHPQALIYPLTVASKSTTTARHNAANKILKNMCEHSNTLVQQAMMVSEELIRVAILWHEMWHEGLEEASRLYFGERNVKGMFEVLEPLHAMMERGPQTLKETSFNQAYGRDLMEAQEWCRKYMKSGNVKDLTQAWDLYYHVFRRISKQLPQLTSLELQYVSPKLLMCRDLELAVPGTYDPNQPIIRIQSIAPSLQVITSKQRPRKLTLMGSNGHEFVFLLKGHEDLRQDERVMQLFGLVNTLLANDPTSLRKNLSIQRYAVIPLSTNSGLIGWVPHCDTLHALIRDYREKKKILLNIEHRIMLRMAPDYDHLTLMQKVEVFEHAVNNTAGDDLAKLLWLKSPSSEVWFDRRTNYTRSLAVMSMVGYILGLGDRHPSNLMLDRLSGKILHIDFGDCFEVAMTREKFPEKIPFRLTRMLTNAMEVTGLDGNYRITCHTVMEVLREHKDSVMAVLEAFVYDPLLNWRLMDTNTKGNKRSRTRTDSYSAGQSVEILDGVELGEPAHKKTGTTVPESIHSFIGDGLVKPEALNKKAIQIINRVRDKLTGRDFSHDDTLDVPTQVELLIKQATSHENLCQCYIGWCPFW

SMILES | IC50
C[C@H]1COCCN1c1cc(C2(S(=O)(=O)c3ccccn3)CC2)nc(-c2ccc(NC(=O)Nc3ccccn3)cc2)n1 [Example 28b, 1-[4-[4-[(3S)-3-methylmorpholin-4-yl]-6-(1-pyridin-2-ylsulfonylcyclopropyl)pyrimidin-2-yl]phenyl]-3-pyridin-2-ylurea] | 1.49 nM
CC(C)CNC(=O)Nc1ccc(-c2nc(N3CCOC[C@@H]3C)cc(C3(S(=O)(=O)c4ccccn4)CC3)n2)cc1 [Example 28c, 1-[4-[4-[(3S)-3-methylmorpholin-4-yl]-6-(1-pyridin-2-ylsulfonylcyclopropyl)pyrimidin-2-yl]phenyl]-3-(2-methylpropyl)urea] | 8.47 nM
CC(C)NC(=O)Nc1ccc(-c2nc(N3CCOC[C@@H]3C)cc(C3(S(=O)(=O)c4ccccn4)CC3)n2)cc1 [Example 28d, 1-[4-[4-[(3S)-3-methylmorpholin-4-yl]-6-(1-pyridin-2-ylsulfonylcyclopropyl)pyrimidin-2-yl]phenyl]-3-propan-2-ylurea] | 2.37 nM
CNC(=O)Nc1ccc(-c2nc(N3CCOC[C@@H]3C)cc(C3(S(=O)(=O)c4ccccn4)CC3)n2)cc1 [Example 28e, 3-methyl-1-[4-[4-[(3S)-3-methylmorpholin-4-yl]-6-(1-pyridin-2-ylsulfonylcyclopropyl)pyrimidin-2-yl]phenyl]urea] | 0.434 nM
C[C@H]1COCCN1c1cc(C2(S(=O)(=O)c3ccccn3)CC2)nc(-c2ccc(NC(=O)NCCN(C)C)cc2)n1 [Example 28f, 3-(2-dimethylaminoethyl)-1-[4-[4-[(3S)-3-methylmorpholin-4-yl]-6-(1-pyridin-2-ylsulfonylcyclopropyl)pyrimidin-2-yl]phenyl]urea] | 67.4 nM
CCCNC(=O)Nc1ccc(-c2nc(N3CCOC[C@@H]3C)cc(C3(S(=O)(=O)c4ccccn4)CC3)n2)cc1 [Example 28h, 3-[4-[4-[(3S)-3-methylmorpholin-4-yl]-6-(1-pyridin-2-ylsulfonylcyclopropyl)pyrimidin-2-yl]phenyl]-1-propylurea] | 0.93 nM
C[C@H]1COCCN1c1cc(C2(S(=O)(=O)c3ccccn3)CC2)nc(-c2ccc(NC(=O)Nc3ccc(C(F)(F)F)cc3)cc2)n1 [Example 28i, 1-[4-[4-[(3S)-3-methylmorpholin-4-yl]-6-(1-pyridin-2-ylsulfonylcyclopropyl)pyrimidin-2-yl]phenyl]-3-[4-(trifluoromethyl)phenyl]urea] | 1.53 nM
C[C@H]1COCCN1c1cc(C2(S(=O)(=O)c3ccccn3)CC2)nc(-c2ccc(NC(=O)NC(C)(C)CO)cc2)n1 [Example 28j, 3-(1-hydroxy-2-methylpropan-2-yl)-1-[4-[4-[(3S)-3-methylmorpholin-4-yl]-6-(1-pyridin-2-ylsulfonylcyclopropyl)pyrimidin-2-yl]phenyl]urea] | 5.57 nM
C[C@H]1COCCN1c1cc(C2(S(=O)(=O)c3ccccn3)CC2)nc(-c2ccc(NC(=O)NCCCO)cc2)n1 [Example 28k, 3-(3-hydroxypropyl)-1-[4-[4-[(3S)-3-methymorpholin-4-yl]-6-(1-pyridin-2-ylsulfonylcyclopropyl)pyrimidin-2-yl]phenyl]urea] | 0.954 nM
C[C@H]1COCCN1c1cc(C2(S(=O)(=O)c3ccccn3)CC2)nc(-c2ccc(NC(=O)Nc3cnn(C)c3)cc2)n1 [Example 28l, 1-[4-[4-[(3S)-3-methylmorpholin-4-yl]-6-(1-pyridin-2-ylsulfonylcyclopropyl)pyrimidin-2-yl]phenyl]-3-(1-methylpyrazol-4-yl)urea] | 0.442 nM
C[C@H]1COCCN1c1cc(C2(S(C)(=O)=O)CC2)nc(-c2ccc(NC(N)=O)cc2)n1 [Example 29, [4-[4-[(3S)-3-Methylmorpholin-4-yl]-6-(1-methylsulfonylcyclopropyl)pyrimidin-2-yl]phenyl]urea] | 4.2 nM
C[C@H]1COCCN1c1cc(C2(S(=O)(=O)c3cc(F)cc(F)c3)CCNCC2)nc(-c2ccc(NC(=O)NC3CC3)cc2)n1 [Example 30, 3-Cyclopropyl-1-[4-[4-[4-(3,5-difluorophenyl)sulfonylpiperidin-4-yl]-6-[(3S)-3-methylmorpholin-4-yl]pyrimidin-2-yl]phenyl]urea] | 25 nM
CC(C)NC(=O)Nc1ccc(-c2nc(N3CCOC[C@@H]3C)cc(C3(S(=O)(=O)CCCO)CC3)n2)cc1 [Example 31, 1-[4-[4-[1-(3-Hydroxypropylsulfonyl)cyclopropyl]-6-[(3S)-3-methylmorpholin-4-yl]pyrimidin-2-yl]phenyl]-3-propan-2-ylurea] | 4.52 nM
CNC(=O)Nc1ccc(-c2nc(N3CCOCC3)cc(C3(C(=O)N(C)C)CC3)n2)cc1 [Example 32, N,N-Dimethyl-1-[2-[4-(methylcarbamoylamino)phenyl]-6-morpholin-4-ylpyrimidin-4-yl]cyclopropane-1-carboxamide] | 3.15 nM

The remaining lines, values ahead:

IC50 | SMILES
4.97 nM | C[C@H]1COCCN1c1cc(C2(S(=O)(=O)CCCO)CC2)nc(-c2ccc(NC(=O)NC3CCC3)cc2)n1 [Example 31b, 3-cyclobutyl-1-[4-[4-[1-(3-hydroxypropylsulfonyl)cyclopropyl]-6-[(3S)-3-methylmorpholin-4-yl]pyrimidin-2-yl]phenyl]urea]
1.31 nM | C[C@H]1COCCN1c1cc(C2(S(=O)(=O)CCCO)CC2)nc(-c2ccc(NC(=O)Nc3ccccn3)cc2)n1 [Example 31c, 1-[4-[4-[1-(3-hydroxypropylsulfonyl)cyclopropyl]-6-[(3S)-3-methylmorpholin-4-yl]pyrimidin-2-yl]phenyl]-3-pyridin-2-ylurea]
9.55 nM | CC(C)CNC(=O)Nc1ccc(-c2nc(N3CCOC[C@@H]3C)cc(C3(S(=O)(=O)CCCO)CC3)n2)cc1 [Example 31d, 1-[4-[4-[1-(3-hydroxypropylsulfonyl)cyclopropyl]-6-[(3S)-3-methylmorpholin-4-yl]pyrimidin-2-yl]phenyl]-3-(2-methylpropyl)urea]
1.07 nM | CCNC(=O)Nc1ccc(-c2nc(N3CCOC[C@@H]3C)cc(C3(S(=O)(=O)CCCO)CC3)n2)cc1 [Example 31e, 1-ethyl-3-[4-[4-[1-(3-hydroxypropylsulfonyl)cyclopropyl]-6-[(3S)-3-methylmorpholin-4-yl]pyrimidin-2-yl]phenyl]urea]
1.6 nM | C[C@H]1COCCN1c1cc(C2(S(=O)(=O)CCCO)CC2)nc(-c2ccc(NC(=O)NCCO)cc2)n1 [Example 31f, 3-(2-hydroxyethyl)-1-[4-[4-[1-(3-hydroxypropylsulfonyl)cyclopropyl]-6-[(3S)-3-methylmorpholin-4-yl]pyrimidin-2-yl]phenyl]urea]
3.23 nM | CNC(=O)Nc1ccc(-c2nc(N3CCOC[C@@H]3C)cc(C3(S(=O)(=O)CCCO)CC3)n2)cc1 [Example 31g, 1-[4-[4-[1-(3-hydroxypropylsulfonyl)cyclopropyl]-6-[(3S)-3-methylmorpholin-4-yl]pyrimidin-2-yl]phenyl]-3-methylurea]
0.209 nM | C[C@H]1COCCN1c1cc(C2(S(=O)(=O)CCCO)CC2)nc(-c2ccc(NC(=O)Nc3ccc(C(F)(F)F)cc3)cc2)n1 [Example 31h, 1-[4-[4-[1-(3-hydroxypropylsulfonyl)cyclopropyl]-6-[(3S)-3-methylmorpholin-4-yl]pyrimidin-2-yl]phenyl]-3-[4-(trifluoromethyl)phenyl]urea]
3.26 nM | C[C@H]1COCCN1c1cc(C2(S(=O)(=O)CCCO)CC2)nc(-c2ccc(NC(=O)NCCCO)cc2)n1 [Example 31i, 3-(3-hydroxypropyl)-1-[4-[4-[1-(3-hydroxypropylsulfonyl)cyclopropyl]-6-[(3S)-3-methylmorpholin-4-yl]pyrimidin-2-yl]phenyl]urea]
1.03 nM | C[C@H]1COCCN1c1cc(C2(S(=O)(=O)CCCO)CC2)nc(-c2ccc(NC(=O)Nc3cnn(C)c3)cc2)n1 [Example 31j, 1-[4-[4-[1-(3-hydroxypropylsulfonyl)cyclopropyl]-6-[(3S)-3-methylmorpholin-4-yl]pyrimidin-2-yl]phenyl]-3-(1-methylpyrazol-4-yl)urea]
1.91 nM | CCCNC(=O)Nc1ccc(-c2nc(N3CCOC[C@@H]3C)cc(C3(S(=O)(=O)CCCO)CC3)n2)cc1 [Example 31k, 3-[4-[4-[1-(3-hydroxypropylsulfonyl)cyclopropyl]-6-[(3S)-3-methylmorpholin-4-yl]pyrimidin-2-yl]phenyl]-1-propylurea]
214 nM | C[C@H]1COCCN1c1cc(C2(S(=O)(=O)CCCO)CC2)nc(-c2ccc(NC(=O)NCCN(C)C)cc2)n1 [Example 31l, 3-(2-dimethylaminoethyl)-1-[4-[4-[1-(3-hydroxypropylsulfonyl)cyclopropyl]-6-[(3S)-3-methylmorpholin-4-yl]pyrimidin-2-yl]phenyl]urea]
5.91 nM | C[C@H]1COCCN1c1cc(C2(S(=O)(=O)CCCO)CC2)nc(-c2ccc(NC(=O)NC(C)(C)CO)cc2)n1 [Example 31m, 3-(1-hydroxy-2-methylpropan-2-yl)-1-[4-[4-[1-(3-hydroxypropylsulfonyl)cyclopropyl]-6-[(3S)-3-methylmorpholin-4-yl]pyrimidin-2-yl]phenyl]urea]
42.5 nM | CNC(=O)Nc1ccc(-c2nc(N3CCOCC3)cc(C3(C(=O)N4CCOC[C@@H]4C)CC3)n2)cc1 [Example 32a, 3-methyl-1-[4-[4-[1-[(3S)-3-methylmorpholine-4-carbonyl]cyclopropyl]-6-morpholin-4-ylpyrimidin-2-yl]phenyl]urea]
8.29 nM | CNC(=O)Nc1ccc(-c2nc(N3CCOCC3)cc(C3(C(=O)NC4CC4)CC3)n2)cc1 [Example 32b, N-cyclopropyl-1-[2-[4-(methylcarbamoylamino)phenyl]-6-morpholin-4-ylpyrimidin-4-yl]cyclopropane-1-carboxamide]
2.88 nM | CNC(=O)Nc1ccc(-c2nc(N3CCOCC3)cc(C3(C(=O)N(C)C4CC4)CC3)n2)cc1 [Example 32c, N-cyclopropyl-N-methyl-1-[2-[4-(methylcarbamoylamino)phenyl]-6-morpholin-4-ylpyrimidin-4-yl]cyclopropane-1-carboxamide]
13.1 nM | CNC(=O)Nc1ccc(-c2nc(N3CCOCC3)cc(C3(C(=O)N4CCN(C)CC4)CC3)n2)cc1 [Example 32d, 3-methyl-1-[4-[4-[1-(4-methylpiperazine-1-carbonyl)cyclopropyl]-6-morpholin-4-ylpyrimidin-2-yl]phenyl]urea]
